The text below walks through data of PMC9228535, “Antistaphylococcal Activities and ADME-Related Properties of Chlorinated Arylcarbamoylnaphthalenylcarbamates” (Pharmaceuticals, 2022).

One data set relates to MRSA SA 3202. The data set is described as follows: MBC, agar aliquot subculture method. The class given is cell-based. Particulars: Staphylococcus aureus.
The next data set has as its system MRSA 63718. The data set is described as follows: MBC, agar aliquot subculture method. The class given is cell-based. Particulars: Staphylococcus aureus, MRSA.
The subject of data set [1] is Staphylococcus aureus ATCC 29213. The data set is described as follows: MBC, agar aliquot subculture method. The class given is cell-based. As to conditions: ATCC29213.
Another data set relates to MRSA SA 630. Put plainly: MBC, agar aliquot subculture method. Particulars: Staphylococcus aureus. The class given is cell-based.
Data set [2] in a line: Lipophilicity determination by RP-HPLC (log k, log D). The class given is physicochemical.
Data set [3] concerns S. aureus and MRSA isolates. The data set is described as follows: Antistaphylococcal MIC, summary over strains. The class given is cell-based, Staphylococcus aureus. As to conditions: Staphylococcus aureus, read-out: MICs. The procedure:
All the investigated compounds were screened for in vitro antibacterial activity against the reference and quality control strain Staphylococcus aureus ATCC 29213 and clinical isolates of methicillin-resistant S. aureus (MRSA) 63718, SA 630, and SA 3202 [14]. Activities are expressed as the minimum inhibitory concentrations (MICs), see Table 2. In addition to the MICs, the minimum bactericidal concentrations (MBCs) were also determined. […] MBC values that meet this requirement, i.e., the compound is bactericidal, are indicated in bold in Table 2.
In vitro antibacterial activity of the synthesized compounds was evaluated against representatives of multidrug-resistant bacteria, three clinical isolates of methicillin-resistant S. aureus: clinical isolate of animal origin, MRSA 63718 (Department of Infectious Diseases and Microbiology, Faculty of Veterinary Medicine, University of Veterinary Sciences Brno, Czech Republic), carrying the mecA gene; and MRSA SA 630 [46] and MRSA SA 3202 [46] (National Institute of Public Health, Prague, Czech Republic), both of human origin. Suspected colonies were confirmed by PCR; a 108bp fragment specific for S. aureus was detected. All isolates were tested for the presence of the mecA gene encoding methicillin resistance. […] Vancomycin-susceptible methicillin-susceptible S. aureus (VS-MSSA) ATCC 29213, obtained from the American Type Culture Collection, was used as the reference and quality control strain. Enterococcus faecalis ATCC 29212 was obtained from the American Type Culture Collection and used as the reference and quality control strain.
The minimum inhibitory concentrations (MICs) were evaluated by the microtitration broth method according to the CLSI [64, 65] with some modifications. […]

In brackets after ≈: the same amount, converted by molar mass.

Usually MBC stands for the smallest concentration meeting the test's criterion for killing. Read a low MBC as greater bactericidal potency. Turning to `CCNC(=O)Oc1c(C(=O)Nc2cc(Cl)c(Cl)cc2Cl)ccc2ccccc12` [Compound 2, 2-[N-(2,4,5-Trichlorophenyl)carbamoyl]naphthalen-1-yl ethyl carbamate], the minimal bactericidal concentration (MBC) with MRSA SA 3202 was 0.073 µM (≈ 0.032 µg/mL); in the data set with MRSA 63718, 0.286 µM (≈ 0.125 µg/mL); in data set [1], 0.018 µM (≈ 0.00788 µg/mL); in the data set with MRSA SA 630 it was 0.144 µM (≈ 0.063 µg/mL). In data set [2], the “lipophilicity (experimental log k/log D, approximate)” value is given as “ca. 0.83”. For the same molecule, in data set [2] (RP-HPLC, MeOH 72%/acetate buffered saline pH 6.5), the “log D6.5” value is 0.8294. Also, the “log D7.4” value in data set [2] (RP-HPLC, MeOH 72%/acetate buffered saline pH 7.4) is recorded as 0.8339. In addition, the log k in data set [2] (RP-HPLC, MeOH 72%/water 28%) was 0.8249. For the same molecule, the MIC in data set [3] was in the range of 0.018 to 0.064 µM (≈ 0.00788 to 0.028 µg/mL).
